Measurements published in patent US10906929B2, “Phosphoramidate nucleoside derivatives as anticancer agents” (NuCana plc, priority 2016, dated 2021).

Legend:
[1] = test system: L1210; assay: Cytostatic activity, cell counting (Coulter counter); format: cell-based; details: Mus musculus, L1210; uninfected, 48 h proliferation; read-out: IC50 L1210
From the text: (§1) Tumor cell cultures were infected with M. hyorhinis (ATCC 17981) and after two or more passages (to avoid bias by the initial inoculum) successful infection was confirmed using the MycoAlert™ mycoplasma detection kit (Lonza, Basel, Switzerland). Although this assay is only semi-quantitative, a maximal infection was observed 3 to 4 days after subcultivation of the mycoplasma-exposed cells. Chronically infected tumor cell lines are further referred to as Cell line.Hyor. All tumor cell cultures were maintained in Dulbecco's modified Eagle's medium (DMEM) (Invitrogen) supplemented with 10% fetal bovine serum (Biochrom AG, Berlin, Germany), 10 mm HEPES, and 1 mm sodium pyruvate (Invitrogen). Cells were grown at 37° C. in a humidified incubator with a gas phase containing 5% CO2.
(§2) The cytostatic activity of the test compounds was examined in mycoplasma-infected and uninfected cancer cell lines. When assaying the effect of M. hyorhinis infection, monolayer MCF7 and MCF7.Hyor cells were seeded in 48-well microtiter plates (Nunc™, Roskilde, Denmark) at 10,000 cells/well (Corning Inc., Corning, N.Y.) […]. After 24 h, the cells were exposed to different concentrations of test compound and allowed to proliferate for 72 h (to ensure sufficient cell proliferation and mycoplasma growth) after which the cells were trypsinized and counted using a Coulter counter (Analis, Suarlée, Belgium). Suspension cells (L1210, L1210.Hyor, FM3A, and FM3A.Hyor) were seeded in 96-well microtiter plates (Nunc) at 60,000 cells/well in the presence of different concentrations of test compound. The cells were allowed to proliferate for 48 h and then counted using a Coulter counter. The 50% inhibitory concentration (IC50) was defined as the compound concentration required to reduce cell proliferation by 50%.

[2] = test system: MCF7; assay: as above; format: cell-based; details: Homo sapiens, MCF7; uninfected, 72 h proliferation; read-out: IC50 MCF7
From the text: as §1, §2

[3] = test system: KG1; assay: In vitro cytotoxicity, MTS assay; format: cell-based; details: Homo sapiens, KG-1, 72 h, read-out: Inhibitory concentration (IC50) KG1
Method: (§3) Cladribine phosphoramidate derivatives were evaluated against six leukaemic cell lines (KG1, U937, K562, NB4R2, NB4 and HL-60) in vitro. Inhibitory concentration (IC50) at which 50% of the cells were no longer viable (calculated using MTS assay) was determined. Cells were treated with Cladribine and its 3′-phosphoramidate derivatives at concentrations between 100 μM and 0.02 μM by serial dilutions and incubated for 72 h at 37° C., 5% CO2 in a final volume of 90 μL. Twenty microliters of MTS reagent (Promega UK Ltd, Southampton, Hants) was added to the tumour cell cultures and reaction incubated for a further 4 h at 37° C., 5% CO2. The absorbance of the reaction after this time was read by spectrophotometry at 490 nm and the percentage of viable cells calculated relative to untreated control cells in the same assay.

[4] = test system: HL-60; assay: In vitro cytotoxicity, MTS assay; format: cell-based; details: Homo sapiens, 72 h, read-out: Inhibitory concentration (IC50) HL-60
Method: as §3

[5] = test system: NB4R2; assay: In vitro cytotoxicity, MTS assay; format: cell-based; details: 72 h, read-out: Inhibitory concentration (IC50) NB4R2
Method: as §3

[6] = test system: K562; assay: In vitro cytotoxicity, MTS assay; format: cell-based; details: Homo sapiens, 72 h, read-out: Inhibitory concentration (IC50) K562
Method: as §3

[7] = test system: U937; assay: In vitro cytotoxicity, MTS assay; format: cell-based; details: Homo sapiens, U-937, 72 h, read-out: Inhibitory concentration (IC50) U937
Method: as §3

[8] = test system: NB4; assay: In vitro cytotoxicity, MTS assay; format: cell-based; details: Homo sapiens, NB-4, 72 h, read-out: Inhibitory concentration (IC50) NB4
Method: as §3

[9] = test system: KG1a cell line; assay: Annexin V/propidium iodide apoptosis assay; format: cell-based; details: 72 h, dose required to kill 50% of the cells
Method: (§4) Cells of the KG1a cell line were maintained in RPMI medium (Invitrogen, Paisley, UK) supplemented with 100 units/ml penicillin, 100 μg/ml streptomycin and 20% foetal calf serum. Cells were subsequently aliquoted (10^5 cells/100 μl) into 96-well plates and were incubated at 37° C. in a humidified 5% carbon dioxide atmosphere for 72 h in the presence of nucleoside analogues and their respective phosphoramidates at concentrations that were experimentally determined for each series of compounds. In addition, control cultures were carried out to which no drug was added. Cells were subsequently harvested by centrifugation and were analyzed by flow cytometry using the Annexin V assay.
Measurement of in vitro apoptosis. Cultured cells were harvested by centrifugation and then resuspended in 195 μl of calcium-rich buffer. Subsequently, 5 μl of Annexin V (Caltag Medsystems, Botolph Claydon, UK) was added to the cell suspension and cells were incubated in the dark for 10 mins prior to washing. Cells were finally resuspended in 190 μl of calcium-rich buffer together with 10 μl of propidium iodide. Apoptosis was assessed by dual-colour immunofluorescent flow cytometry as described previously. Subsequently LD50 values (the dose required to kill 50% of the cells in a culture) were calculated for each nucleoside analogue and phosphoramidate.
The data obtained in these experiments were evaluated using one way ANOVA. All data was confirmed as Gaussian or a Gaussian approximation using the omnibus K2 test. LD50 values were calculated from the non-linear regression and line of best-fit analysis of the sigmoidal dose-response curves. All statistical analyses were performed using Graphpad Prism 6.0 software (Graphpad Software Inc., San Diego, Calif.).

[10] = test system: leukaemic stem cell compartment (Lin-/CD34+/CD38-/CD123+) within the KG1a cell line; assay: Immunophenotypic identification of the leukaemic stem cell compartment; format: cell-based; details: 72 h, LSC phenotype as percentage of all viable cells left, Control: 4%
Method: A further comparative analysis of the toxicity of compounds in the KG1a cell line over an extended dose range was carried out, and the relative effect assessed of the compounds on the leukaemic stem cell compartment within the KG1a cell line, across the entire dose range. Thus, experimental tests were performed on certain compounds of the present invention to assess their ability to target cancer stem cells in a leukaemic cell line. The acute myeloid leukaemia (AML) cell line, KG1a, was employed to assess the relative effect of compounds on the stem cell compartment. The KG1a cell line was selected because it manifests a minor stem cell-like compartment with a distinct immunophenotype (Lin^−/CD34^+/CD38^−/CD123^+).
as §4
KG1a cells were cultured for 72 h in the presence of a wide range of concentrations of each compound assayed. Cells were then harvested and labelled with a cocktail of anti-lineage antibodies (PE-cy7), anti-CD34 (FITC), anti-CD38 (PE) and anti-CD123 (PERCP cy5). The sub-population expressing a leukaemic stem cell (LSC) phenotype were subsequently identified and were expressed as a percentage of all viable cells left in the culture. […]

[11] = test system: MCF7 cells infected with Mycoplasma hyorhnis (HYOR); assay: Cytostatic activity in mycoplasma-infected cells; format: cell-based, human
From the text: as §1, §2

Work on `Nc1nc(Cl)nc2c1ncn2[C@H]1C[C@H](O)[C@@H](CO)O1` [Cladribine, cladribine, reference compound] yielded an IC50 [1] of 0.4 µM, an IC50 [2] of 0.37 µM and an IC50 [3] of 0.06 µM. For the same molecule, the IC50 [4] was 0.09 µM, the IC50 [5] was 0.06 µM and the IC50 [6] was 0.53 µM. The IC50 [7] was 0.02 µM, the IC50 [8] was 0.04 µM and the LD50 [9] was 0.18 μm. The Stem cell % [10] was 6%, the IC50 ([11]; Homo sapiens, MCF7, 72 h, read-out: IC50 MCF7/HYOR) was 9.3 µM and the Loss of potency ([11]; MCF7/HYOR versus MCF7) was 25-fold.
